Measured values taken from PubChem BioAssay (NCI).
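A five-concentration, 48-hour dose response in 96-well plates underlies each endpoint, interpolated linearly between surrounding concentrations. At the TGI there is no net growth.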

Tested on: HT29 colon
Assay: growth of human tumour cells (NCI), 48 h

Row | Structure (SMILES) | TGI [µM]
1 | COc1ccc2[nH]c3c(c2c1)[C@H]1CCC(C(C)(C)C)C[C@H]1[C@H]1C(=O)N(c2ccccc2)C(=O)[C@@H]31 (some centres not stated) | > 100
2 | COc1cc(C2c3cc4c(cc3C(=O)C3CCC(=O)N32)OCO4)cc(OC)c1O (configuration not stated) | > 50

Tested on: 786-0 renal
Assay: growth of human tumour cells (NCI), 48 h

Row | Structure (SMILES) | TGI [µM]
3 | CCOC(=O)C1=C(OC(OCC)C(CC)[Se]c2ccccc2)CCC1 (configuration not stated) | 30.5
4 | CCCc1cc(OC(=O)c2c(O)cc(OC)cc2CCC)cc(O)c1C(=O)O | > 100
5 | Cc1ccc(-c2cc(-c3ccccc3)c(C#N)c(=O)[nH]2)cc1 | > 100
6 | O=[N+]([O-])c1ccc(-c2nn3c(C45CC6CC(CC(C6)C4)C5)nnc3s2)c(Cl)c1 | > 100
7 | O=[N+]([O-])c1cccc(Nc2nc(Cl)nc(Cl)n2)c1 | > 100
8 | CC(Cn1c2c(c3cc(O)ccc31)CCc1ccc(O)cc1-2)N(C)C (configuration not stated) | 35.9
9 | O=C(Cn1c2ccc(Br)cc2c2nc3ccccc3nc21)Nc1ccccc1 | 28.7
10 | Cc1cc(O)c(/C=N/C(=S)Nc2ccc(S(N)(=O)=O)cc2)c(=O)o1 | > 100
11 | COc1ccc(-c2nc(-c3cnccn3)n(C3OC(CO)C(O)C3O)n2)cc1 (configuration not stated) | > 10
12 | CC(=O)[C@H]1[C@H](O)C[C@@]2(C)[C@@H]3CCc4cc(O)c(OC5OC(CO)C(O)C(O)C5O)cc4C3(C)C(=O)C[C@]12C (some centres not stated) | > 100
13 | O=C(NCCN1CCCCC1)c1cccc(I)c1 | > 100
14 | COC(=O)[C@@](NC(=O)OCc1ccccc1)([C@H](C)O)C(F)(F)F | > 100
15 | CO/C(=N\N=C\c1ccc(Cl)c(Cl)c1)c1ccncc1 | > 10
16 | O=c1[nH][nH]c(=O)c2c1ccc1oc3ccccc3c12 | > 100
17 | COC(=O)/C=C(\C)CCC1SC1(C)C (configuration not stated) | > 100
18 | C=C1C2=C(CCCC2)C(=O)OC12CCCCC2 | > 100
19 | COc1cc(OC)c2c(=O)c3cccc(C)c3n(C)c2c1 | > 100
20 | COC(=O)C(=O)C(C(=O)C(=O)Nc1ccc(C)cc1C)c1nc2ccc(Cl)cc2[nH]c1=O (configuration not stated) | > 100
21 | CC1=CCC(C(C)(C)NC(=O)c2ccccc2)C/C1=N/O (configuration not stated) | > 100
22 | Cc1c(/C=N/NC(=S)N2CCCCC2)c(=O)n(-c2ccccc2)n1C | > 100
23 | CCSC1=N/C(=C\c2ccco2)C(=O)N1 | > 100
24 | COc1ccc(-c2nc(Nc3ccccc3)sc2Cc2sc(Nc3ccccc3)nc2-c2ccc(OC)cc2)cc1 | > 100
25 | CCOC(=O)CCC(NC(=O)c1ccc(NC(OC)c2nc3cc(C(F)(F)F)ccc3nc2-c2ccccc2)cc1)C(=O)OCC (configuration not stated) | 26.6
26 | CCCCOC/N=C(/N)NC#N | > 100
27 | C[C@@H]1CC[C@@H]2[C@@H](C1)O[C@@H]([C@@H](C)OCc1ccccc1)SC2(C)C | 34
28 | Cc1sc2nc3n(c(=O)c2c1C)N=CN(c1ccc(Cl)cc1)C3 | > 100
29 | COc1ccc2[nH]c3c(c2c1)[C@H]1CCC(C(C)(C)C)C[C@H]1[C@H]1C(=O)N(c2ccccc2)C(=O)[C@@H]31 (some centres not stated) | 15.6
30 | COc1cc(C2c3cc4c(cc3C(=O)C3CCC(=O)N32)OCO4)cc(OC)c1O (configuration not stated) | > 50

Tested on: T-47D breast
Assay: growth of human tumour cells (NCI), 48 h

Row | Structure (SMILES) | TGI [µM]
31 | O=[N+]([O-])c1ccc(-c2nn3c(C45CC6CC(CC(C6)C4)C5)nnc3s2)c(Cl)c1 | > 100
32 | O=C(Cn1c2ccc(Br)cc2c2nc3ccccc3nc21)Nc1ccccc1 | 57.1
33 | Cc1cc(O)c(/C=N/C(=S)Nc2ccc(S(N)(=O)=O)cc2)c(=O)o1 | > 100
34 | CC(=O)[C@H]1[C@H](O)C[C@@]2(C)[C@@H]3CCc4cc(O)c(OC5OC(CO)C(O)C(O)C5O)cc4C3(C)C(=O)C[C@]12C (some centres not stated) | > 100
35 | COC(=O)[C@@](NC(=O)OCc1ccccc1)([C@H](C)O)C(F)(F)F | > 100
36 | CO/C(=N\N=C\c1ccc(Cl)c(Cl)c1)c1ccncc1 | > 10
37 | O=c1[nH][nH]c(=O)c2c1ccc1oc3ccccc3c12 | > 100
38 | CC1=CCC(C(C)(C)NC(=O)c2ccccc2)C/C1=N/O (configuration not stated) | > 100
39 | COc1ccc(-c2nc(Nc3ccccc3)sc2Cc2sc(Nc3ccccc3)nc2-c2ccc(OC)cc2)cc1 | > 100
40 | C[C@@H]1CC[C@@H]2[C@@H](C1)O[C@@H]([C@@H](C)OCc1ccccc1)SC2(C)C | 32.4
41 | COc1cc(C2c3cc4c(cc3C(=O)C3CCC(=O)N32)OCO4)cc(OC)c1O (configuration not stated) | > 50

Tested on: HCT-116 colon
Assay: growth of human tumour cells (NCI), 48 h

Row | Structure (SMILES) | TGI [µM]
42 | CCOC(=O)C1=C(OC(OCC)C(CC)[Se]c2ccccc2)CCC1 (configuration not stated) | > 100
43 | CCCc1cc(OC(=O)c2c(O)cc(OC)cc2CCC)cc(O)c1C(=O)O | 32.2
44 | Cc1ccc(-c2cc(-c3ccccc3)c(C#N)c(=O)[nH]2)cc1 | > 100
45 | O=[N+]([O-])c1ccc(-c2nn3c(C45CC6CC(CC(C6)C4)C5)nnc3s2)c(Cl)c1 | > 100
46 | O=[N+]([O-])c1cccc(Nc2nc(Cl)nc(Cl)n2)c1 | > 100
47 | CC(Cn1c2c(c3cc(O)ccc31)CCc1ccc(O)cc1-2)N(C)C (configuration not stated) | > 100
48 | O=C(Cn1c2ccc(Br)cc2c2nc3ccccc3nc21)Nc1ccccc1 | 27.6
49 | Cc1cc(O)c(/C=N/C(=S)Nc2ccc(S(N)(=O)=O)cc2)c(=O)o1 | > 100
50 | CC(=O)[C@H]1[C@H](O)C[C@@]2(C)[C@@H]3CCc4cc(O)c(OC5OC(CO)C(O)C(O)C5O)cc4C3(C)C(=O)C[C@]12C (some centres not stated) | > 100
51 | COC(=O)[C@@](NC(=O)OCc1ccccc1)([C@H](C)O)C(F)(F)F | > 100
52 | CO/C(=N\N=C\c1ccc(Cl)c(Cl)c1)c1ccncc1 | > 10
53 | O=c1[nH][nH]c(=O)c2c1ccc1oc3ccccc3c12 | > 100
54 | COC(=O)/C=C(\C)CCC1SC1(C)C (configuration not stated) | > 100
55 | C=C1C2=C(CCCC2)C(=O)OC12CCCCC2 | > 100
56 | COc1cc(OC)c2c(=O)c3cccc(C)c3n(C)c2c1 | > 100
57 | COC(=O)C(=O)C(C(=O)C(=O)Nc1ccc(C)cc1C)c1nc2ccc(Cl)cc2[nH]c1=O (configuration not stated) | > 100
